From US7709548B2, “Method for manufacturing monosulfonium salt, cationic polymerization initiator, curable composition, and cured product” (San-Apro Limited, priority 2003, dated 2010)

Assay: Storage stability test (viscosity change of mixture with UVR-6110 stored at 80° C.)
Format: physicochemical
Conditions: measured at 25° C.; for Viscosity after storage for 1 week / Viscosity after storage for 2 weeks / Viscosity after storage for 4 weeks / Viscosity after storage for 6 weeks: stored at 80° C.
Procedure: As an acceleration test for storage stability, a mixture of the cationic polymerization initiator solution and a cationic polymerizable compound was evaluated by measuring its change in the viscosity when stored at a temperature of 80° C.
5 parts of a propylene carbonate solution of the cationic polymerization initiators used in each of Test Examples 5 and 9 was added to 100 parts UVR-6110 (the alicyclic epoxy resin, supra), and 200 g of this mixture was put in a 250 mL brown plastic bottle and stored in an 80° C. thermostat.
3 parts of a propylene carbonate solution of the cationic polymerization initiator used in each of Test Examples 12 and 15 were mixed with 100 parts UVR-6110, and 200 g of this mixture taken in a 250 ml brown plastic bottle and stored in an 80° C. thermostat.
The above-mentioned mixture was adjusted to 25° C. in a thermostatic tank that had been adjusted to 25° C., and the viscosity of the mixture was measured at the start of storage and after one, two, four, and six weeks.

[1] = 5 parts initiator solution per 100 parts UVR-6110
[2] = 3 parts initiator solution per 100 parts UVR-6110

Compound: F[P-](F)(F)(F)(F)F.c1ccc(Sc2ccc([S+](c3ccccc3)c3ccccc3)cc2)cc1 [Example 5, (4-phenylthiophenyl)diphenylsulfonium hexafluorophosphonate]
- Viscosity after storage, At start [1]: 480 mPa · s
- Viscosity after storage for 1 week [1]: 480 mPa · s
- Viscosity after storage for 2 weeks [1]: 480 mPa · s
- Viscosity after storage for 4 weeks [1]: 500 mPa · s
- Viscosity after storage for 6 weeks [1]: 500 mPa · s

Compound: (4-phenylthiophenyl)diphenylsulfonium hexafluoroantimonate [Example 8]
- Viscosity after storage, At start [2]: 470 mPa · s
- Viscosity after storage for 1 week [2]: 470 mPa · s
- Viscosity after storage for 2 weeks [2]: 470 mPa · s
- Viscosity after storage for 4 weeks [2]: 510 mPa · s
- Viscosity after storage for 6 weeks [2]: 650 mPa · s
